In PubChem BioAssay (NCI):
Values joined by “and” are separate entries in the source; they are usually repeats but may differ in a detail not shown here. Equal values may be shown once.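 Tested at 5 concentrations; 48 h exposure; 96-well plates; endpoints linearly interpolated, else capped at highest concentration. GI50 marks 50% less growth. TGI: concentration producing complete growth inhibition.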 Where a SMILES comes first, the peptide text is derived from it. [ ]: non-standard residue; d: D form. The star is where a group is joined. ξ: configuration not given here. ξF = NC(Cc1ccccc1)C(=O)O; Cbz = O=C(OCc1ccccc1)*; Aib = CC(C)(N)C(=O)O

What was measured:
Assay in all cases: NCI anticancer screen, dose series, 48 h
ACHN renal = test system: ACHN renal
MCF7 breast = test system: MCF7 breast
CCRF-CEM leukemia = test system: CCRF-CEM leukemia
U251 CNS = test system: U251 CNS
SNB-75 CNS = test system: SNB-75 CNS
HS 578T breast = test system: HS 578T breast
MDA-MB-231 breast = test system: MDA-MB-231 breast
SK-MEL-5 melanoma = test system: SK-MEL-5 melanoma
NCI-H226 lung = test system: NCI-H226 lung
HOP-62 NSCLC = test system: HOP-62 NSCLC

CCN(CC)CC[n+]1ccc2c(C)c3[nH]c4ccc(O)cc4c3c(C)c2c1
TGI (ACHN renal): 16.5 µM | GI50 (MCF7 breast): 1.74 µM | TGI (MCF7 breast): 34.5 µM and 80.6 µM | GI50 (CCRF-CEM leukemia): 0.808 µM | TGI (CCRF-CEM leukemia): 33 µM and 23.1 µM | GI50 (U251 CNS): 0.624 µM | TGI (U251 CNS): 9.12 µM and 11.1 µM | GI50 (SNB-75 CNS): 0.523 µM | TGI (SNB-75 CNS): 7.51 µM and 2.83 µM | TGI (HS 578T breast): 15.8 µM | TGI (MDA-MB-231 breast): 36.6 µM | GI50 (SK-MEL-5 melanoma): 4.5 µM | TGI (SK-MEL-5 melanoma): 12.6 µM and 27.1 µM | GI50 (NCI-H226 lung): 0.631 µM | TGI (NCI-H226 lung): 6.64 µM and 3.58 µM | TGI (HOP-62 NSCLC): 13.4 µM and 18.9 µM

Nc1[nH]c(=S)nc2nc3c(c(-c4ccccc4)c12)CCCC3
TGI (ACHN renal): > 100 µM | TGI (MCF7 breast): > 100 µM | TGI (U251 CNS): > 100 µM | TGI (SNB-75 CNS): > 100 µM | TGI (HS 578T breast): > 100 µM | TGI (MDA-MB-231 breast): > 100 µM | TGI (SK-MEL-5 melanoma): > 100 µM | TGI (HOP-62 NSCLC): > 100 µM

CCCCCCCCCCCCCC1=C(O)C(=O)C(CC2=C(O)C(=O)C(CCCCCCCCCCCCC)=C(O)C2=O)=C(O)C1=O
TGI (ACHN renal): > 100 µM | TGI (MCF7 breast): > 100 µM | TGI (CCRF-CEM leukemia): > 100 µM | TGI (U251 CNS): > 100 µM | TGI (SNB-75 CNS): 83 µM | TGI (HS 578T breast): > 100 µM | TGI (MDA-MB-231 breast): > 100 µM | TGI (SK-MEL-5 melanoma): > 100 µM | TGI (NCI-H226 lung): > 100 µM

CN(C)CCNC(=O)c1cc(Cl)cc2cc3ccccc3nc12
TGI (MCF7 breast): 4.53 µM | TGI (CCRF-CEM leukemia): 3.28 µM | TGI (U251 CNS): 8.4 µM | TGI (SNB-75 CNS): 6.09 µM | TGI (SK-MEL-5 melanoma): 2.6 µM | TGI (NCI-H226 lung): 3.89 µM | TGI (HOP-62 NSCLC): 5.04 µM

Cc1[nH]c(=O)[nH]c(=O)c1/C=C/C(=O)NC(CO)CS(=O)CS(C)=O (stereo unspecified)
TGI (MCF7 breast): 125 µM | TGI (CCRF-CEM leukemia): 111 µM | TGI (U251 CNS): 39.6 µM | TGI (SNB-75 CNS): 38.8 µM | TGI (SK-MEL-5 melanoma): 76.9 µM | TGI (NCI-H226 lung): 77.3 µM | TGI (HOP-62 NSCLC): 94.5 µM

CCOC(=O)CCC(C(=O)OCC)n1nc2ccc(Nc3c(C)[n+]([O-])c4cc(F)c(OCC)cc4[n+]3[O-])cc2n1 (stereo unspecified)
TGI (ACHN renal): > 100 µM | TGI (MCF7 breast): > 100 µM | TGI (CCRF-CEM leukemia): > 100 µM | TGI (U251 CNS): 62.7 µM | TGI (SNB-75 CNS): 32.9 µM | TGI (HS 578T breast): 90.7 µM | TGI (SK-MEL-5 melanoma): > 100 µM | TGI (NCI-H226 lung): > 100 µM | TGI (HOP-62 NSCLC): 40.8 µM

COc1cc(/C=C2\N=C(c3ccccc3)N(c3ccc(C(=O)c4ccccc4)cc3N3C(=O)/C(=C/c4ccc(O)c(OC)c4)N=C3c3ccccc3)C2=O)ccc1O
TGI (ACHN renal): 57.2 µM | TGI (MCF7 breast): 20.2 µM | TGI (CCRF-CEM leukemia): > 100 µM | TGI (U251 CNS): 37.5 µM | TGI (SNB-75 CNS): 54.3 µM | TGI (HS 578T breast): 46.6 µM | TGI (MDA-MB-231 breast): 43.8 µM | TGI (SK-MEL-5 melanoma): 20.2 µM | TGI (HOP-62 NSCLC): 48.9 µM

CCCCCCCCCCCCCCCCCCNc1ccn(C2OC(CO)C(OP(=O)(O)OCC(O)COP(=O)(O)OCC3OC(n4cc(F)c(NCCCCCCCCCCCCCCCCCC)nc4=O)CC3O)C2O)c(=O)n1 (stereo unspecified)
TGI (ACHN renal): > 50 µM | TGI (MCF7 breast): > 50 µM | TGI (U251 CNS): > 50 µM | TGI (SNB-75 CNS): > 50 µM | TGI (HS 578T breast): > 50 µM | TGI (MDA-MB-231 breast): > 50 µM | TGI (SK-MEL-5 melanoma): > 50 µM | TGI (NCI-H226 lung): > 50 µM | TGI (HOP-62 NSCLC): > 50 µM

CCOC(=O)CNC(=O)C(Cc1ccccc1)NC(=O)C(C)(C)NC(=O)OCc1ccccc1 (stereo unspecified) (Cbz-[Aib]-[ξF]-Gly-OEt)
TGI (ACHN renal): > 100 µM | TGI (MCF7 breast): > 100 µM | TGI (CCRF-CEM leukemia): > 100 µM | TGI (U251 CNS): > 100 µM | TGI (MDA-MB-231 breast): > 100 µM | TGI (SK-MEL-5 melanoma): > 100 µM | TGI (HOP-62 NSCLC): > 100 µM

CCCCN1C(=O)c2c(Br)sc(Br)c2C1=O
TGI (ACHN renal): > 100 µM | TGI (MCF7 breast): > 100 µM | TGI (CCRF-CEM leukemia): > 100 µM | TGI (U251 CNS): > 100 µM | TGI (SNB-75 CNS): 90.5 µM | TGI (MDA-MB-231 breast): > 100 µM | TGI (SK-MEL-5 melanoma): > 100 µM | TGI (NCI-H226 lung): > 100 µM | TGI (HOP-62 NSCLC): > 100 µM

CC(C)(C)c1ccc2c(c1)C#Cc1cc(C(C)(C)C)ccc1OCCCO2
TGI (ACHN renal): > 100 µM | TGI (MCF7 breast): > 100 µM | TGI (CCRF-CEM leukemia): > 100 µM | TGI (U251 CNS): > 100 µM | TGI (HS 578T breast): > 100 µM | TGI (MDA-MB-231 breast): > 100 µM | TGI (SK-MEL-5 melanoma): > 100 µM | TGI (NCI-H226 lung): > 100 µM | TGI (HOP-62 NSCLC): > 100 µM

OCC(O)CNc1ncnc2ccccc12 (stereo unspecified)
TGI (ACHN renal): > 100 µM | TGI (MCF7 breast): > 100 µM | TGI (CCRF-CEM leukemia): > 100 µM | TGI (U251 CNS): > 100 µM | TGI (SNB-75 CNS): > 100 µM | TGI (HS 578T breast): > 100 µM | TGI (MDA-MB-231 breast): > 100 µM | TGI (SK-MEL-5 melanoma): > 100 µM | TGI (NCI-H226 lung): > 100 µM | TGI (HOP-62 NSCLC): > 100 µM

COC(=O)C1=C(C)N2CCSC2(C)C(C(=O)OC)C1c1cccc(Cl)c1 (stereo unspecified)
TGI (ACHN renal): > 100 µM | TGI (CCRF-CEM leukemia): 69.5 µM | TGI (SNB-75 CNS): 42.9 µM | TGI (SK-MEL-5 melanoma): 29 µM | TGI (NCI-H226 lung): 47.4 µM | TGI (HOP-62 NSCLC): 38.2 µM

O=C(CSCC(=O)N/N=C/c1ccccc1)N/N=C\c1ccccc1
TGI (ACHN renal): > 100 µM | TGI (MCF7 breast): > 100 µM | TGI (CCRF-CEM leukemia): > 100 µM | TGI (U251 CNS): > 100 µM | TGI (SNB-75 CNS): > 100 µM | TGI (HS 578T breast): > 100 µM | TGI (MDA-MB-231 breast): > 100 µM | TGI (SK-MEL-5 melanoma): > 100 µM | TGI (NCI-H226 lung): > 100 µM | TGI (HOP-62 NSCLC): > 100 µM

N#CC1=C2SCCN2C(=O)C(C#N)C12CCCCC2 (stereo unspecified)
TGI (ACHN renal): > 100 µM | TGI (MCF7 breast): > 100 µM | TGI (CCRF-CEM leukemia): > 100 µM | TGI (U251 CNS): > 100 µM | TGI (SNB-75 CNS): > 100 µM | TGI (MDA-MB-231 breast): > 100 µM | TGI (SK-MEL-5 melanoma): > 100 µM | TGI (NCI-H226 lung): > 100 µM | TGI (HOP-62 NSCLC): > 100 µM

C=C1C(=O)O[C@@H]2/C=C(\C)CC/C=C(\C)CC[C@@]12O
TGI (ACHN renal): 3.36 µM | TGI (MCF7 breast): 14.5 µM | TGI (CCRF-CEM leukemia): 0.607 µM | TGI (U251 CNS): 19.7 µM | TGI (HS 578T breast): 22.7 µM | TGI (MDA-MB-231 breast): 22.8 µM | TGI (SK-MEL-5 melanoma): 15.5 µM | TGI (NCI-H226 lung): 59.2 µM | TGI (HOP-62 NSCLC): 15.6 µM

Cc1cc2c(c(O)c1-c1c(C)cc(O)c3c1C(=O)C=CC3=O)C(=O)C=CC2=O
TGI (ACHN renal): 1.44 µM | TGI (U251 CNS): 32.1 µM | TGI (SNB-75 CNS): 84.9 µM | TGI (HS 578T breast): 32.9 µM | TGI (MDA-MB-231 breast): 4.88 µM | TGI (SK-MEL-5 melanoma): 14.5 µM | TGI (NCI-H226 lung): 73.5 µM | TGI (HOP-62 NSCLC): 56.5 µM

O=C(Oc1c(Cl)cc(C2(c3cc(Cl)c(OC(=O)c4ccccc4)c(Cl)c3)CCCCC2)cc1Cl)c1ccccc1
TGI (ACHN renal): 17.6 µM | TGI (MCF7 breast): 25.2 µM | TGI (CCRF-CEM leukemia): 30.1 µM | TGI (U251 CNS): 26.8 µM | TGI (SNB-75 CNS): 26.9 µM | TGI (HS 578T breast): 32.4 µM | TGI (MDA-MB-231 breast): 27.3 µM | TGI (SK-MEL-5 melanoma): 22.9 µM | TGI (NCI-H226 lung): 42.5 µM | TGI (HOP-62 NSCLC): 33.9 µM

S=c1c2[nH]cnc2ncn1CCSC1=NC=NC2=NC=NC21 (stereo unspecified)
TGI (ACHN renal): > 100 µM | TGI (MCF7 breast): > 100 µM | TGI (CCRF-CEM leukemia): > 100 µM | TGI (U251 CNS): > 100 µM | TGI (SNB-75 CNS): > 100 µM | TGI (HS 578T breast): > 100 µM | TGI (MDA-MB-231 breast): > 100 µM | TGI (SK-MEL-5 melanoma): > 100 µM | TGI (NCI-H226 lung): > 100 µM | TGI (HOP-62 NSCLC): > 100 µM
